Patent publication US20220323443A1, “COMBINATION THERAPY FOR CANCER TREATMENT” (TAKEDA PHARMACEUTICAL COMPANY LIMITED, priority 2019, published 2022)
Like-named read-outs stand apart in the source and are kept apart here.

Legend:
HCT116 cancer cells = test: In vitro combination study with Compound 1, Cell Titer-Glo (ATP) cell viability, 72 h; assay type: cell-based;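 also: combination call from 10×10 dose matrices in duplicate, graded by synergy, with percent activity per well relative to DMSO vehicle controls on the same plate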
Procedure: (§2) Each combination pair was evaluated in an individual 384-well plate which contained variable doses of both compounds as single agents, as well as two, ten-by-ten matrices (in duplicate) that contained mixtures of the two test compounds. In brief, compounds were added to the cell test plates 16 hours after cell plating and then assessed for viability 72 hours later. Continuous cultures of tumor cells were maintained under standard cell culturing conditions (i.e. in a humidified chamber set at 37° C., containing atmosphere 5% carbon dioxide). […] Seventy-two hours after compound addition, ATP levels were measured to assess cell viability. Plating densities were chosen to ensure optimal linear growth over the 72 hour period.
(§3) Compound dilution and compound delivery to the assay plates were done on HighRes Robotic System (HighRes Biosolutions, Woburn, Mass., USA) with Echo™ Liquid Handler (Labcyte, Sunnyvale, Calif., USA). […] Next, these were used for compound transfer into cell assay plates. All wells were back-filled to give a constant percentage of DMSO.
(§4) The final DMSO concentration was held constant in all wells across the plate and was maintained at less than 0.5%. […] Cells treated with vehicle (DMSO) in two rows, or single compound serial dilutions in one plate columns/row served as the untreated control and single compound controls, respectively.
(§5) Compound activity in A549, COLO205, H460, HCT116, SW48, SW620 cancer cell lines was assessed using Cell Titer-Glo® (Promega [Madison, Wis., USA]). After 72 hours incubation, the plates were treated as per package insert protocol for the Promega Luminescence ATP Detection Systems. Briefly, 25 μL of cell lysis/substrate solution (provided in kit form) was added to each well and the plate was incubated at room temperature for 10 minutes. Luminescence was measured using a PHERAstar multi-label counter (BMG Labtech [Ortenberg, Germany]) or LEADseeker (GE Healthcare Life Sciences [Piscataway, N.J., USA]).
(§6) Numerical luminescence values were analyzed to generate EC50 curves and evaluate synergy. Raw Data reader files were uploaded along with automation workfiles that defined the plate and well contents. Percent activities were calculated for each well versus plate controls.
(§7) Each plate representing a single drug combination was analyzed separately. First, the viability measurements were normalized by scaling the data so that the median of the negative controls was 0 and the median of the positive controls was 100.
(§8) For the combination analysis, a response surface model was used to describe the relationship between the normalized viability and the drug concentrations. The data were fit to the model by minimizing the residual sum of squares. Based on the fitted response surface, plots of constant viability, called isobolograms, were produced.
(§9) The Combination Index and Nonlinear Blending were used as measures of drug synergy. To calculate Combination Index the 50% isobologram (which is the dose contour that has 50% viability) was used. […] A standard procedure was created to produce a call in order to characterize the viability effects for each combination (synergy, additivity, subadditivity, or antagonism). If the Combination Index existed then these measures were used to make the call.

H460 cancer cells = test: as above; assay type: cell-based
Procedure: as §2, §3, §4, §5, §6, §7, §8, §9

H-1650 (Lung) = test: In vitro combination study for selected compounds, additional cell lines; assay type: cell-based; conditions: drug combined with Compound 1
Procedure: (§1) In vitro anti-proliferative effects of selected compounds were tested in additional cell lines, including ovarian cancer (SKOV3) and pancreatic cancer (MIA-PACA-2) cell lines.

CALU6 (Lung) = test: as above; assay type: cell-based; conditions: drug combined with Compound 1
Procedure: as §1

SW48 cancer cells = test: In vitro combination study with Compound 1, Cell Titer-Glo (ATP) cell viability, 72 h; assay type: cell-based
Procedure: as §2
Compound dilution and compound delivery to the assay plates were done on HighRes Robotic System (HighRes Biosolutions, Woburn, Mass., USA) with Echo™ Liquid Handler (Labcyte, Sunnyvale, Calif., USA). First, 384-well low dead volume (LDV) plates containing DMSO (Appendix B) and 10 mM compound stock solutions were used to create the required intermediate compound dilution plates. Next, these were used for compound transfer into cell assay plates. All wells were back-filled to give a constant percentage of DMSO.
as §4, §5, §6, §7, §8, §9

[1] = system: PHTXS-13O human primary ovarian cancer xenografts; test: In vivo combination study, Patient Derived Xenograft; set-up: species or system mouse; conditions: for Result (combination with Compound 1, tumor growth): PHTXS-13O (170 mm^3) FIG. 4A
Procedure: To investigate in vivo antitumor activity of Compound 1 in combination with other agents, tests using Cell Derived Xenograft (CDX), Patient Derived Xenograft (PDX) and Syngeneic mouse tumor isograft model were conducted. Cells or Patient Derived Tumors were inoculated by one method of the following two methods (Method A and B) as shown Table 7.
Method A; Cells were maintained in either immune deficient nude mice or immune competent mice by subcutaneous inoculation of tumor cells at various concentrations into respected mice. Method B: Patient Derived Tumor s were maintained in nude mice by subcutaneous inoculation of tumor pieces (approx. 2×2×2 mm) into nude mice. Mice with tumor size of approximately 50 mm^3 (e.g., 40-75 mm^3) for syngeneic mouse studies or 200 mm^3 (e.g., 110-270 mm^3) for xenograft studies were randomly assigned to dose groups on the day (Day 0) before start date of dosing.
Compound 1 (crystalline form I) was suspended in 0.5 w/v % methylcellulose and administered orally to mice. Antibodies which administered in the experiment were described in Table 8.
Tumor size was measured by caliper and tumor volume was estimated using the equation V=(LW^2)/2, where L and W are tumor length and width, respectively and reported in cubic millimeters.
These values were compared across treatment groups to assess whether the differences in the trends over time were statistically significant. To compare pairs of treatment groups, the following mixed-effects linear regression model was fit to the data using the maximum likelihood method:
For synergy analyses, the observed differences in the log tumor values were used to calculate AUC values for each animal. In instances when an animal in a treatment group was removed from the study, the last observed tumor value was carried forward through all subsequent time points. The AUC for the control, or vehicle, group was calculated using the predicted values from the pairwise models described above. We defined a measure of synergy as follows:
where Ak and Bk are the k^th animal in the individual treatment groups and ABk is the k^th animal in combination treatment group. AUCcd is the model-predicted AUC for the control group and was treated as a constant with no variability. The standard error of the synergy score was calculated as the square root of the sum of squared standard errors across groups A, B, and AB. The degrees of freedom were estimated using the Welch-Satterthwaite equation. A hypothesis test was performed to determine if the synergy score differed from 0. P values were calculated by dividing the synergy score by its standard error and tested against a t-distribution (two-tailed) with the above-calculated degrees of freedom.
The effect was classified into four different categories. It was considered synergistic if the synergy score was less than 0 and additive if the synergy score wasn't statistically different from 0. If the synergy score was greater than zero, but the mean AUC for the combination was lower than the lowest mean AUC among the two single agent treatments, then the combination was sub-additive. If the synergy score was greater than zero, and the mean AUC for the combination was greater than the mean AUC for at least one of the single agent treatments, then the combination was antagonistic.

[2] = system: ovarian cancer (SKOV3) cell line; test: In vitro combination study for selected compounds, additional cell lines; assay type: cell-based; conditions: drug combined with Compound 1
Procedure: as §1

SW620 cancer cells = test: In vitro combination study with Compound 1, Cell Titer-Glo (ATP) cell viability, 72 h; assay type: cell-based;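 also: Ten-by-ten dose matrices of both drugs in 384-well plates, luminescent ATP read-out, synergy evaluated against single-agent and DMSO vehicle controls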
Procedure: as §2, §3, §4, §5, §6, §7, §8, §9

A549 cancer cells = test: as above; assay type: cell-based
Procedure: as §2, §3, §4, §5, §6, §7, §8, §9

COLO205 cancer cells = test: as above; assay type: cell-based, human
Procedure: as §2, §3, §4, §5, §6, §7, §8, §9

[3] = DNA damaging agent combined with Compound 1, 72 h
[4] = Table 5 drug combined with Compound 1, 72 h
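For Call, anti-proliferative effect of combination with Compound 1, A549 in this document: Ten-by-ten dose matrices of the two agents in duplicate, compounds added 16 h post-plating, activity relative to DMSO vehicle wells, call reflects synergy evaluation from luminescence.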
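For Call, anti-proliferative effect of combination with Compound 1, COLO205 in this document: Ten-by-ten dose matrices of both agents in duplicate plus single-agent dilutions, luminescent ATP read-out, percent activity per well relative to DMSO vehicle wells, synergy call from these matrices.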
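For Call, anti-proliferative effect of combination with Compound 1, H460 in this document: Ten-by-ten dose matrices of both drugs alongside single-agent dilutions, luminescence read 72 hours after compound addition, percent activity per well versus vehicle (DMSO) plate controls.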

## N.N.O=C([O-])C1(C(=O)[O-])CCC1.[Pt+2] [Carboplatin]
HCT116 cancer cells; [3]
  Call, anti-proliferative effect of combination with Compound 1, HCT116: Synergy (0 to 0.7)
H460 cancer cells; [3]
  Call, anti-proliferative effect of combination with Compound 1, H460: Synergy (0 to 0.7)
H-1650 (Lung)
  In vitro combination effect with Compound 1, Lung H-1650: Additive
CALU6 (Lung)
  In vitro combination effect with Compound 1, Lung CALU6: Additive
SW48 cancer cells; [3]
  Call, anti-proliferative effect of combination with Compound 1, SW48: Additivity (0.7 to 1.3)
[1]; Compound 1 40 mg/kg once daily Day 1-14, drug 30 mg/kg intraperitoneally Days 1,5,9,13
  Result (combination with Compound 1, tumor growth): Additive
[1]; Compound 1 40 mg/kg once daily Day 1-14, drug 50 mg/kg intraperitoneally Days 1,5,9,13
  Result (combination with Compound 1, tumor growth): Additive
[1]; Compound 1 60 mg/kg once daily Day 1-14, drug 30 mg/kg intraperitoneally Days 1,5,9,13
  Result (combination with Compound 1, tumor growth): Additive
[1]; Compound 1 60 mg/kg once daily Day 1-14, drug 50 mg/kg intraperitoneally Days 1,5,9,13
  Result (combination with Compound 1, tumor growth): Additive
[1]; combined with Compound 1, PHTXS-13O human primary ovarian cancer xenografts, FIG. 4A
  antitumor activity: strong antitumor activity compared to either single treatment alone

## N.N.[Cl][Pt][Cl] [Cisplatin]
HCT116 cancer cells; [3]
  Call, anti-proliferative effect of combination with Compound 1, HCT116: Synergy (0 to 0.7)
H460 cancer cells; [3]
  Call, anti-proliferative effect of combination with Compound 1, H460: Synergy (0 to 0.7)
H-1650 (Lung)
  In vitro combination effect with Compound 1, Lung H-1650: Additive
CALU6 (Lung)
  In vitro combination effect with Compound 1, Lung CALU6: Additive
[2]
  In vitro combination effect with Compound 1, Ovary SKOV3: Additive
SW620 cancer cells; [3]
  Call, anti-proliferative effect of combination with Compound 1, SW620: Synergy (0 to 0.7)
SW48 cancer cells; [3]
  Call, anti-proliferative effect of combination with Compound 1, SW48: Additivity (0.7 to 1.3)

## COC1=CC(c2cc3ccccc3[nH]2)=N/C1=C\c1[nH]c(C)cc1C [Obatoclax]
HCT116 cancer cells; [4]
  Call, anti-proliferative effect of combination with Compound 1, HCT116: Additivity (0.7 to 1.3)
H460 cancer cells; [4]
  Call, anti-proliferative effect of combination with Compound 1, H460: Synergy (0 to 0.7)
A549 cancer cells; [4]
  Call, anti-proliferative effect of combination with Compound 1, A549: Additivity (0.7 to 1.3)
SW620 cancer cells; [4]
  Call, anti-proliferative effect of combination with Compound 1, SW620: Synergy (0 to 0.7)
SW48 cancer cells; [4]
  Call, anti-proliferative effect of combination with Compound 1, SW48: Additivity (0.7 to 1.3)
COLO205 cancer cells; [4]
  Call, anti-proliferative effect of combination with Compound 1, COLO205: Additivity (0.7 to 1.3)

## O=C1[O][Pt]2([NH][C@@H]3CCCC[C@H]3[NH]2)[O]C1=O [Oxaliplatin]
HCT116 cancer cells
  Call, anti-proliferative effect of combination with Compound 1, HCT116: Additivity (key: Inconclusive: Any; Additivity: 0.7 to 1.3; Synergy: 0 to 0.7; Subadditivity: 1.3 to 2; Antagonism: >2)
H460 cancer cells
  Call, anti-proliferative effect of combination with Compound 1, H460: Additivity (key: Inconclusive: Any; Additivity: 0.7 to 1.3; Synergy: 0 to 0.7; Subadditivity: 1.3 to 2; Antagonism: >2)
H-1650 (Lung)
  In vitro combination effect with Compound 1, Lung H-1650: Additive
CALU6 (Lung)
  In vitro combination effect with Compound 1, Lung CALU6: Additive
[2]
  In vitro combination effect with Compound 1, Ovary SKOV3: Additive
SW620 cancer cells
  Call, anti-proliferative effect of combination with Compound 1, SW620: Synergy (key: Inconclusive: Any; Additivity: 0.7 to 1.3; Synergy: 0 to 0.7; Subadditivity: 1.3 to 2; Antagonism: >2)
SW48 cancer cells
  Call, anti-proliferative effect of combination with Compound 1, SW48: Additivity (key: Inconclusive: Any; Additivity: 0.7 to 1.3; Synergy: 0 to 0.7; Subadditivity: 1.3 to 2; Antagonism: >2)
COLO205 cancer cells
  Call, anti-proliferative effect of combination with Compound 1, COLO205: Synergy (key: Inconclusive: Any; Additivity: 0.7 to 1.3; Synergy: 0 to 0.7; Subadditivity: 1.3 to 2; Antagonism: >2)

## CC(=O)O[C@H]1C(=O)[C@@]2(C)[C@H]([C@H](OC(=O)c3ccccc3)[C@]3(O)C[C@H](OC(=O)[C@H](O)[C@@H](NC(=O)c4ccccc4)c4ccccc4)C(C)=C1C3(C)C)[C@]1(OC(C)=O)CO[C@@H]1C[C@@H]2O [Paclitaxel]
H-1650 (Lung)
  In vitro combination effect with Compound 1, Lung H-1650: Antagonism
CALU6 (Lung)
  In vitro combination effect with Compound 1, Lung CALU6: Additive

## COc1cc([C@@H]2c3cc4c(cc3[C@@H](O[C@@H]3O[C@@H]5CO[C@@H](c6cccs6)O[C@H]5[C@H](O)[C@H]3O)[C@H]3COC(=O)[C@H]23)OCO4)cc(OC)c1O [Teniposide]
HCT116 cancer cells; [3]
  Call, anti-proliferative effect of combination with Compound 1, HCT116: Synergy (0 to 0.7)
H460 cancer cells; [3]
  Call, anti-proliferative effect of combination with Compound 1, H460: Synergy (0 to 0.7)
A549 cancer cells; [3]
  Call, anti-proliferative effect of combination with Compound 1, A549: Synergy (0 to 0.7)
SW620 cancer cells; [3]
  Call, anti-proliferative effect of combination with Compound 1, SW620: Synergy (0 to 0.7)
SW48 cancer cells; [3]
  Call, anti-proliferative effect of combination with Compound 1, SW48: Synergy (0 to 0.7)
COLO205 cancer cells; [3]
  Call, anti-proliferative effect of combination with Compound 1, COLO205: Synergy (0 to 0.7)

## bleomycin
HCT116 cancer cells
  Call, anti-proliferative effect of combination with Compound 1, HCT116: Synergy (key: Inconclusive: Any; Additivity: 0.7 to 1.3; Synergy: 0 to 0.7; Subadditivity: 1.3 to 2; Antagonism: >2)
H460 cancer cells
  Call, anti-proliferative effect of combination with Compound 1, H460: Synergy (key: Inconclusive: Any; Additivity: 0.7 to 1.3; Synergy: 0 to 0.7; Subadditivity: 1.3 to 2; Antagonism: >2)
A549 cancer cells
  Call, anti-proliferative effect of combination with Compound 1, A549: Additivity (key: Inconclusive: Any; Additivity: 0.7 to 1.3; Synergy: 0 to 0.7; Subadditivity: 1.3 to 2; Antagonism: >2)
SW620 cancer cells
  Call, anti-proliferative effect of combination with Compound 1, SW620: Additivity (key: Inconclusive: Any; Additivity: 0.7 to 1.3; Synergy: 0 to 0.7; Subadditivity: 1.3 to 2; Antagonism: >2)
SW48 cancer cells
  Call, anti-proliferative effect of combination with Compound 1, SW48: Additivity (key: Inconclusive: Any; Additivity: 0.7 to 1.3; Synergy: 0 to 0.7; Subadditivity: 1.3 to 2; Antagonism: >2)
COLO205 cancer cells
  Call, anti-proliferative effect of combination with Compound 1, COLO205: Synergy (key: Inconclusive: Any; Additivity: 0.7 to 1.3; Synergy: 0 to 0.7; Subadditivity: 1.3 to 2; Antagonism: >2)
